{"source": "patent US20220395549A1", "about": "“COMPOSITIONS OF THE OLEA EUROPAEA V. SYLVESTRIS WITH ANTIMICROBIAL EFFICACY” (TAPROGGE GMBH, priority 2019, published 2022)", "origin": "cited, not measured here", "test_system": "test microorganisms", "settings": "cited from earlier work"}
{"smiles": "COc1cc(C(=O)O)cc(OC)c1O", "note": "[syringic acid]", "values": [{"measurement": "antimicrobial activities of phenolic compounds", "result": "ineffective"}]}
